Each structure is given as a SMILES string. Converted amounts (≈) assume the structure as drawn.

Data set [1] concerns the target T1, Leucine-rich repeat serine/threonine-protein kinase 2 (Homo sapiens, UniProt Q5S007). Kind of data set: Inhibition of recombinant full-length LRRK2 (unknown origin) expressed in SH-SY5Y cells assessed as reduction in Ser935 phosphorylation after 60 mins by Alpha Screen assay. The class given is cell-based.
Data set [2] concerns the target T1, Leucine-rich repeat serine/threonine-protein kinase 2. Kind of data set: Inhibition of recombinant His6-Tev-LRRK2 (1326 to 2527 residues) (unknown origin) using LRRKtide as substrate preincubated for 30 mins followed by substrate addition and measured after 2 hrs in presence of ATP by TR-FRET assay. On the technique in general: Time-resolved FRET reads energy transfer from a long-lived donor to a nearby acceptor.

A short description of data set [3]: Solubility of the compound in FaSSIF measured after 4 hrs. The class given is physicochemical.
The nature of data set [4]: Lipophilicity, logD of compound at pH 7.4. The settings on record: buffer.
The nature of data set [5]: Metabolic stability in human liver microsomes assessed as intrinsic clearance. The class given is ADME, Microsome. A general note: Microsomes from liver hold many membrane-bound enzymes, among them those of drug oxidation.
Data set [6] is described as follows: Permeability ratio across apical side to basolateral side in MDCK2 cells transfected with Bacmam virus containing human BCRP at 3 uM after 90 mins in presence or absence of GF120918 by transwell assay. The class given is ADME, cell-based, Canis lupus familiaris. The settings on record: dog, mdck-ii, 1.5 h.
The target of data set [7] is Tyrosine-protein kinase JAK2 (Homo sapiens) (UniProt O60674). The experiment in a line: Inhibition of JAK2 (unknown origin) at 1 uM by radioactivity-based enzymatic assay relative to control.
Sequence of Tyrosine-protein kinase JAK2 (Homo sapiens) (O60674 whole entry): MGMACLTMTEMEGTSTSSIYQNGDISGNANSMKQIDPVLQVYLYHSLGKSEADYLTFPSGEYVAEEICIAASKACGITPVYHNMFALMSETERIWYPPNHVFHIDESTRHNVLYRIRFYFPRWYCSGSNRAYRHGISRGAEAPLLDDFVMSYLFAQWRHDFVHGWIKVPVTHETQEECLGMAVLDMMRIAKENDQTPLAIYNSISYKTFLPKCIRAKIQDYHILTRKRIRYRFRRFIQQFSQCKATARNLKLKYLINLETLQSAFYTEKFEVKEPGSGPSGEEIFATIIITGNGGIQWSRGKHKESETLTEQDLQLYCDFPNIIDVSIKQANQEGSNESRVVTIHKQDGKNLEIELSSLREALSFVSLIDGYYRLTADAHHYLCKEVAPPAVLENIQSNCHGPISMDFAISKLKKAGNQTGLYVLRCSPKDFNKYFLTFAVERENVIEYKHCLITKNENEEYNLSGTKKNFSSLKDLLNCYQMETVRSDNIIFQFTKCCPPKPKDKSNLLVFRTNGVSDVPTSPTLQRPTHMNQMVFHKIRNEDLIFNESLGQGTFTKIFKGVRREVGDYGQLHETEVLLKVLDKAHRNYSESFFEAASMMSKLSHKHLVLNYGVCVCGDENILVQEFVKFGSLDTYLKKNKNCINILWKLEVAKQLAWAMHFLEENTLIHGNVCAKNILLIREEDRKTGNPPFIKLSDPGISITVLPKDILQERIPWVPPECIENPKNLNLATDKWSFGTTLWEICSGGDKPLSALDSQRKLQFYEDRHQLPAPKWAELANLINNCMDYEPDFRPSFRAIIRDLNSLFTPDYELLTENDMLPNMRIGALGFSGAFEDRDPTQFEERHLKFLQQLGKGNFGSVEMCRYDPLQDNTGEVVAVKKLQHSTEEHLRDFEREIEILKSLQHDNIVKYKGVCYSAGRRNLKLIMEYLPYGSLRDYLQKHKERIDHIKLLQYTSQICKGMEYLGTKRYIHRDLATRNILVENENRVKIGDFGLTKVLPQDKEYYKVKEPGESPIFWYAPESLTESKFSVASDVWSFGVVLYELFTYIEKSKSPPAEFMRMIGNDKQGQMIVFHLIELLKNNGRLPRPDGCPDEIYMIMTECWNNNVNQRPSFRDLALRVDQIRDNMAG
Data set [8] has as its target T2, Mitogen-activated protein kinase kinase kinase kinase 3 (Homo sapiens) (UniProt Q8IVH8).
T2 sequence (whole entry): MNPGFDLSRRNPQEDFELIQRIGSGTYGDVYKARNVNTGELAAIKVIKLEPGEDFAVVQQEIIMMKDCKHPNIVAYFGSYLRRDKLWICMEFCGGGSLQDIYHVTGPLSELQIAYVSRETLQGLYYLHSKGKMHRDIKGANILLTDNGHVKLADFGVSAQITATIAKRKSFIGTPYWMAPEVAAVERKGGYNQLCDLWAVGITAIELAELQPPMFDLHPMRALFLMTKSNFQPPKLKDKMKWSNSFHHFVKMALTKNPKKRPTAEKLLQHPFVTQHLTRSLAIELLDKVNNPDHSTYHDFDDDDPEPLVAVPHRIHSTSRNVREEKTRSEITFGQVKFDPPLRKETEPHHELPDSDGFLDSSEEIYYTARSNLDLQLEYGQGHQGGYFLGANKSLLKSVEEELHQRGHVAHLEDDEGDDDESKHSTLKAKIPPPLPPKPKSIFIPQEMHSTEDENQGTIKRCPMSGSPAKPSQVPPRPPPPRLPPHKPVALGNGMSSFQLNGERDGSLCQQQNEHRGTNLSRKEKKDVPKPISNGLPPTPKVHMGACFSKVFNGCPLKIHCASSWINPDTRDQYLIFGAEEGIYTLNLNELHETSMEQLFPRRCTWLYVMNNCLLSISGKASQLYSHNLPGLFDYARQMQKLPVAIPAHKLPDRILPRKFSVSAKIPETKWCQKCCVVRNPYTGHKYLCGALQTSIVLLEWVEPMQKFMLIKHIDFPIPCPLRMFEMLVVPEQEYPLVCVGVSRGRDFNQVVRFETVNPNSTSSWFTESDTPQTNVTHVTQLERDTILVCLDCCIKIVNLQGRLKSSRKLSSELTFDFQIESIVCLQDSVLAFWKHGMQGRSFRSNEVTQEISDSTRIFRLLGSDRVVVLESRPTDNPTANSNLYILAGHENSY
The experiment in a line: Inhibition of MAP4K3 (unknown origin) at 1 uM by radioactivity-based enzymatic assay relative to control.

Data set [9] is described as follows: Artificial membrane permeability by PAMPA method. The following applies: read-out: permeability. The class given is ADME. (In general: In PAMPA a lipid-coated filter parts donor from acceptor wells.)
In data set [10] the target is T3, Interleukin-1 receptor-associated kinase 4 (Homo sapiens) (UniProt Q9NWZ3).
T3 sequence (whole entry): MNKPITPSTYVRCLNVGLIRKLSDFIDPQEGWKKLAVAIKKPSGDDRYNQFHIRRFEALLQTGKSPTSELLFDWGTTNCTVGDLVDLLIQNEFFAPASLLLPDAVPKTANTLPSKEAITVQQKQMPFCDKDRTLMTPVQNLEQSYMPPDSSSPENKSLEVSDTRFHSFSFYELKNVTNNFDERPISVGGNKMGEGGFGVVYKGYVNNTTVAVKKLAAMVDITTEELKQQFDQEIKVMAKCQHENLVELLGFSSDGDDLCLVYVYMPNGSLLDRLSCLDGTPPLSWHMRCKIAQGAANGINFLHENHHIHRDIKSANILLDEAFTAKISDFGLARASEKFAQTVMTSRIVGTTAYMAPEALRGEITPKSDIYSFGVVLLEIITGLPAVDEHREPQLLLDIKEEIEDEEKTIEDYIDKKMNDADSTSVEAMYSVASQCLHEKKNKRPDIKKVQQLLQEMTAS
The experiment in a line: Inhibition of IRAK4 (unknown origin) at 1 uM by radioactivity-based enzymatic assay relative to control.

Data set [11] concerns the target Tyrosine-protein kinase SYK (Homo sapiens) (UniProt P43405). The experiment in a line: Inhibition of SYK (unknown origin) at 1 uM by radioactivity-based enzymatic assay relative to control.
For data set [12], the target named is Mitogen-activated protein kinase kinase kinase 9 (Homo sapiens) (UniProt P80192). Kind of data set: Inhibition of MLK1 (unknown origin) at 1 uM by radioactivity-based enzymatic assay relative to control.
Sequence of Mitogen-activated protein kinase kinase kinase 9 (Homo sapiens) (P80192 whole entry, looked up): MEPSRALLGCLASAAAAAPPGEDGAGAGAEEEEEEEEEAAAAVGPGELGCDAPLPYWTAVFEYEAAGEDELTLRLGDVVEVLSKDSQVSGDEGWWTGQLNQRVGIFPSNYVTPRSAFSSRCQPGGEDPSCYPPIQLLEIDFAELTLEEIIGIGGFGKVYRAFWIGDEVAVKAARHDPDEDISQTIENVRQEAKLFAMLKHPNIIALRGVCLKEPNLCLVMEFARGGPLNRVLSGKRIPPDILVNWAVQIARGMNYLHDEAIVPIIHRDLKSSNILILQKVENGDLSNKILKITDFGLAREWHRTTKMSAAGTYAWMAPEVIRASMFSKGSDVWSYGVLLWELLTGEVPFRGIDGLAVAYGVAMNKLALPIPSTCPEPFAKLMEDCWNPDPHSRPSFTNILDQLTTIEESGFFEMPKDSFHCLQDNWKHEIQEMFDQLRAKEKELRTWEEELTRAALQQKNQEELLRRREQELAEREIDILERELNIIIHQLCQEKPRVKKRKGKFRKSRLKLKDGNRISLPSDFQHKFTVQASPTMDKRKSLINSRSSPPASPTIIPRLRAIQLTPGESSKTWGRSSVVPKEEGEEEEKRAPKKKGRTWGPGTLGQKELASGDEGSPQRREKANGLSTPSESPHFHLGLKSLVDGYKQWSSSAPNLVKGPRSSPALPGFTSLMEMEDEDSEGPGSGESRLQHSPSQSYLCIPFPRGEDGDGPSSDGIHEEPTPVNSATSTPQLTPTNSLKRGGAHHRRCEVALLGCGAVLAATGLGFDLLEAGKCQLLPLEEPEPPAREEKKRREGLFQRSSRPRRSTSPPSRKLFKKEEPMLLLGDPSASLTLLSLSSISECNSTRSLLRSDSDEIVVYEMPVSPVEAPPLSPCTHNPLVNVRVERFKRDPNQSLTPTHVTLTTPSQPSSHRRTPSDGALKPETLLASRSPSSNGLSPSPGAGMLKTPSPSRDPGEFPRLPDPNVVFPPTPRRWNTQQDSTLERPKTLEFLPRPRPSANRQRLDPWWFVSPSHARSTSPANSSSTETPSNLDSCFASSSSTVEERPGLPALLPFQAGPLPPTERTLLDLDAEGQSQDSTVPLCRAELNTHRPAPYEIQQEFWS
Data set [13] can be described thus: Dose normalized AUC (0 to t) in Han-Wistar rat blood at 2 mg/kg, po measured up to 7 hrs by UPLC-MS/MS analysis. The class given is ADME, organism-based. The following applies: in vivo.
Data set [14] can be described thus: Dose normalized AUC (0 to t) in Han-Wistar rat brain at 2 mg/kg, po measured up to 7 hrs by UPLC-MS/MS analysis. The class given is ADME, organism-based. The following applies: in vivo.
Data set [15] in a line: Unbound fraction in Han-Wistar rat brain at 2 mg/kg, po. The class given is ADME, organism-based.
Data set [16] can be described thus: Ratio of total drug concentration in brain to blood in Han-Wistar rat at 2 mg/kg, po. The class given is ADME, organism-based.

T1 sequence (Q5S007 whole entry, the tested form may be a part): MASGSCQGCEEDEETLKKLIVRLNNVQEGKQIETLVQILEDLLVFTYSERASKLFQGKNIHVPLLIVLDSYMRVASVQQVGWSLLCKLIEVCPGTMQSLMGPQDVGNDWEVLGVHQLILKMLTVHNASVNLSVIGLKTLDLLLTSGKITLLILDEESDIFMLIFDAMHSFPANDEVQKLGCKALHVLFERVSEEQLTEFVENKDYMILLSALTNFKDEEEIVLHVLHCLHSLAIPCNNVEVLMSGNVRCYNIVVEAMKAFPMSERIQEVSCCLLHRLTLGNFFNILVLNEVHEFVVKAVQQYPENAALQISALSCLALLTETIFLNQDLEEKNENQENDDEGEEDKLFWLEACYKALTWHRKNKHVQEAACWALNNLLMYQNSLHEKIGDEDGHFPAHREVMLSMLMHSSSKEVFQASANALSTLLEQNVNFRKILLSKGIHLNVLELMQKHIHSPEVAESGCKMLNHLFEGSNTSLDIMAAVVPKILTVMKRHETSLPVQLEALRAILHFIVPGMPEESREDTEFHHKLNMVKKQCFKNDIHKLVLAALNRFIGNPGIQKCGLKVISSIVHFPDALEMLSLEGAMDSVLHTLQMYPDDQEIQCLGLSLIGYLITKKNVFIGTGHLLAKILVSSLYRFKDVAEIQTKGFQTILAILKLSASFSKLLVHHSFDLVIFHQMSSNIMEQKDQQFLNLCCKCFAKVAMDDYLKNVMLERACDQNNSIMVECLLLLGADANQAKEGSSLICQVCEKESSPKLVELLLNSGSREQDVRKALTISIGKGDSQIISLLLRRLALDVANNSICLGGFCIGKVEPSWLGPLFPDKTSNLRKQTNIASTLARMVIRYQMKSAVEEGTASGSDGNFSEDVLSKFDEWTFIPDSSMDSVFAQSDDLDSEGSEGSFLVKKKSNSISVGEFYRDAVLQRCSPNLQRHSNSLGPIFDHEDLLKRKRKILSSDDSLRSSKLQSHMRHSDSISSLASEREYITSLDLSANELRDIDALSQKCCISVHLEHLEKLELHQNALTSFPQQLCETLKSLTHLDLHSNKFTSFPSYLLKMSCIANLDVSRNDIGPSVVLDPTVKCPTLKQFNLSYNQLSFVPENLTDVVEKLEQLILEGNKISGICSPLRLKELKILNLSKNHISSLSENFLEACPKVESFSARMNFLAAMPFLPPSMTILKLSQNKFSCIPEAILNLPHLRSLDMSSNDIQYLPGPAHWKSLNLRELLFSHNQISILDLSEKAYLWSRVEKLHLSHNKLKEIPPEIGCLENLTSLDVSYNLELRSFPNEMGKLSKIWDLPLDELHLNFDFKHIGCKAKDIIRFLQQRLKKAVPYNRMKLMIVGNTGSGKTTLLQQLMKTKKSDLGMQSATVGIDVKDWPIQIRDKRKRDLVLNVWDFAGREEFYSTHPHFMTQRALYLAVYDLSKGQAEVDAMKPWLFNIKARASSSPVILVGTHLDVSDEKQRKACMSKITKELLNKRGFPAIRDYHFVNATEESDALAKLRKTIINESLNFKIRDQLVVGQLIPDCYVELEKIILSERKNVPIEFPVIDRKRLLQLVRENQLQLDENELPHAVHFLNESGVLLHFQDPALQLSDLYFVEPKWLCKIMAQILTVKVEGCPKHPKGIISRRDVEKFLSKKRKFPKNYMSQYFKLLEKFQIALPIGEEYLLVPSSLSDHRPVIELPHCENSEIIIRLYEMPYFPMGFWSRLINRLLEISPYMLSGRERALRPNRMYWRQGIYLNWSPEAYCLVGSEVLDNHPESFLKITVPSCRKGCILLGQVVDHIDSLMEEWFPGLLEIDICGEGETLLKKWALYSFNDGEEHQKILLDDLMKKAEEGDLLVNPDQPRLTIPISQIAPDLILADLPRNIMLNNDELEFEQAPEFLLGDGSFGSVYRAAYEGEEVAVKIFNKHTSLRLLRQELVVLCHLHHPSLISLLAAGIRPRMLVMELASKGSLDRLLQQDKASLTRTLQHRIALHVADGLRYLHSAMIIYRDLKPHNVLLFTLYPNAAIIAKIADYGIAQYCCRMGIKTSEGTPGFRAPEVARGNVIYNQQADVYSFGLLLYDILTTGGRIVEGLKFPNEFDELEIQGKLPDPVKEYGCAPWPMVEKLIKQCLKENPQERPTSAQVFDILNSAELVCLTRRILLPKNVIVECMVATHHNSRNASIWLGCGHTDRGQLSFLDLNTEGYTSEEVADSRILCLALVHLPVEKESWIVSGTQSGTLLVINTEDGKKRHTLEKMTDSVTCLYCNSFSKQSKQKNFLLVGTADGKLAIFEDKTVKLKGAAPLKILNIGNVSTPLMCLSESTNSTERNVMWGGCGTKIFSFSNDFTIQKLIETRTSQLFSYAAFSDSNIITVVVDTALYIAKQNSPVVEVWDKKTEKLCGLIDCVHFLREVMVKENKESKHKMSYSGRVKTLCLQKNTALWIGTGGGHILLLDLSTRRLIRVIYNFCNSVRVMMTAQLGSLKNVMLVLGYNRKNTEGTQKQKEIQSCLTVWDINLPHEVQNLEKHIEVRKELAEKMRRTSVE

On to `CCOc1nc(Nc2ccc(C(=O)N3CCN(C)CC3)cc2OC(F)F)nc2[nH]ccc12`, for which the IC50 (commonly the concentration needed to halve the response being measured) in data set [1] was 158 nM; in [2], < 0.158 nM.
Regarding `CCOc1nc(Nc2ccc(C(=O)N3C[C@@H](C)O[C@@H](C)C3)cc2OC)nc2[nH]ccc12`, the solubility (usually the concentration that dissolves in the medium under given conditions) at 4 h in [3] came to 4.4 µg/mL (≈ 10.3 µM). Also, the results for the IC50 in data set [1] and in data set [2] were 200 nM and 63.1 nM, respectively. Further, in [4], the logD (commonly lipophilicity at a set pH, counting ionised and neutral species) is 5.7. The CLH in data set [5] was found to be 1.5 mL/min/g.
In the case of `CCOc1nc(Nc2ccc(C(=O)NCC(C)(C)O)cc2OC)nc2[nH]ccc12`, in data set [6], the Ratio worked out at 3.8. In [3], this compound showed a solubility at 4 h of 25.5 µg/mL (≈ 63.8 µM). Moreover, the IC50 in data set [1] was 126 nM; in data set [2], 12.6 nM. The compound also had a logD in [4] of 4.1. Moreover, in data set [5], the CLH is 0.8 mL/min/g.
On to `CCOc1nc(Nc2ccc(C(=O)N3CCOC[C@@H]3C)cc2OC)nc2[nH]ccc12`, for which the Ratio in data set [6] is listed as 1.8. Further, in [3], the concentration in solution (solubility at 4 h) was 154 µg/mL (≈ 374 µM). Moreover, the IC50 in data set [1] is 100 nM; in data set [2] it was 7.94 nM. Further, the logD in [4] amounted to 5. For the same compound, the CLH in data set [5] was determined as 1.4 mL/min/g.
Consider `NC(=O)c1ccc(Nc2nc(NCC(F)(F)F)c3cc[nH]c3n2)cc1`, for which the inhibition in [7], in data set [8], in [10], in data set [11] and in data set [12] was > 50% in each case. For the same compound, the Papp in data set [9] was found to be 3.6 ×10⁻⁶ cm/s. In data set [3], this compound had a solubility at 4 h of 8.6 µg/mL (≈ 24.6 µM). Moreover, the values for the IC50 in [1] and in [2] were 50.1 nM and 12.6 nM, respectively. For the same compound, in [4], the logD is 2.8.
On to `CCOc1nc(Nc2ccc(C(=O)N3CCN(C)CC3)cc2)nc2[nH]ccc12`, for which the IC50 in [1] was 79.4 nM; in [2] it was 12.6 nM.
On to `CCOc1nc(Nc2ccc(C(=O)N3CCN4CCC[C@@H]4C3)cc2OC)nc2[nH]ccc12`, for which the values for the AUCt/dose in data set [13] and in data set [14] were 487 ng·h/g/mg/kg and 246 ng·h/g/mg/kg, respectively. Besides, in data set [15], the fraction unbound (usually free concentration divided by total concentration) was < 0.005. Moreover, the Kp (commonly tissue or fluid exposure divided by exposure in the circulation) in data set [16] was 0.51. Further, the solubility at 4 h in data set [3] is 300 µg/mL (≈ 687 µM). Besides, the logD in data set [4] was determined as 4.9. In addition, the CLH in data set [5] turned out to be 2.5 mL/min/g.
In turn, `CCOc1nc(Nc2ccc(C(=O)N3CC4(COC4)C3)cc2OC)nc2[nH]ccc12` showed a solubility at 4 h in data set [3] of 6.2 µg/mL (≈ 15.1 µM). Moreover, the IC50 is 158 nM in [1] and 63.1 nM in data set [2]. Also, the log distribution coefficient (logD) in [4] was 4.3. Moreover, the CLH in data set [5] worked out at 1.1 mL/min/g.
Consider `CCOc1nc(Nc2ccc(C(=O)N3CCN(C)CC3)cc2N(C)C)nc2[nH]ccc12`, for which the IC50 is 3160 nM in [1] and 200 nM in [2].
As to `CCOc1nc(Nc2ccc(C(=O)N3CCN(C)CC3)cc2F)nc2[nH]ccc12`, the IC50 in data set [1] was 158 nM; in data set [2] it was 12.6 nM.
Turning to `CCOc1nc(Nc2ccc(C(=O)N3CCN(C)CC3)cc2OC)nc2[nH]ccc12`, in data set [2], the IC50 is 15.8 nM.
For the compound `CCOc1nc(Nc2ccc(C(=O)N3CCOC[C@H]3C)cc2OC)nc2[nH]ccc12`, in data set [6], the Ratio was determined as 2.2. For the same compound, the solubility at 4 h in data set [3] came to 78.8 µg/mL (≈ 192 µM). The IC50 in data set [1] was 79.4 nM; in data set [2] it was 15.8 nM. In [4], this compound came in with a logD of 5.1. In addition, the CLH in data set [5] came to 0.8 mL/min/g.
For the compound `CCOc1nc(Nc2ccc(C(=O)N3CCOCC3)cc2)nc2[nH]ccc12`, the inhibition in data set [7], in data set [8], in data set [10], in data set [11] and in [12] was > 50% in each case. The Papp in data set [9] was determined as 51 ×10⁻⁶ cm/s. In data set [3], this compound registered a solubility at 4 h of 1.7 µg/mL (≈ 4.63 µM). The figures for the IC50 in data set [1] and in data set [2] were 63.1 nM and 7.94 nM, respectively. For the same compound, the logD in data set [4] is 3.9.
Turning to `CCOc1nc(Nc2ccc(C(=O)N3CCOCC3)cc2OC(C)C)nc2[nH]ccc12`, the IC50 is 631 nM in data set [1] and 12.6 nM in [2].
For `CCOc1nc(Nc2ccc(C(=O)N3CCC(F)CC3)cc2OC)nc2[nH]ccc12`, in data set [3], the concentration in solution (solubility at 4 h) came to 39.7 µg/mL (≈ 96 µM). Also, the IC50 in [1] was 316 nM; in [2], 6.31 nM. Moreover, the CLH in data set [5] came to 1.1 mL/min/g.
As to `CCOc1nc(Nc2ccc(C(=O)N3CCC4(CC3)CN(C)C4)cc2OC)nc2[nH]ccc12`, in [6], the Ratio amounted to 5. Also, the solubility at 4 h in [3] came out at 621 µg/mL (≈ 1380 µM). Besides, the IC50 was 63.1 nM in data set [1] and 6.31 nM in data set [2]. This compound had a logD in data set [4] of 3. Besides, in [5], the CLH is < 0.777 mL/min/g.
Regarding `CCOc1nc(Nc2ccc(C(=O)N3CCN4CCC[C@H]4C3)cc2OC)nc2[nH]ccc12`, the concentration in solution in data set [3] (solubility at 4 h) was 309 µg/mL (≈ 709 µM). In data set [4], this compound showed a logD of 4.9. For the same compound, the CLH in data set [5] came out at 3.2 mL/min/g.
Regarding `CCOc1nc(Nc2ccc(C(=O)N3CCN(C)CC3)cc2Cl)nc2[nH]ccc12`, the IC50 in data set [1] was 251 nM; in data set [2], 12.6 nM.
As for `CCOc1cc(C(=O)N2CCN(C)CC2)ccc1Nc1nc(OCC)c2cc[nH]c2n1`, the IC50 is 126 nM in [1] and 10 nM in data set [2].

For the origin of these results see ChEMBL document CHEMBL4715821, “Discovery of 4-ethoxy-7H-pyrrolo[2,3-d]pyrimidin-2-amines as potent, selective and orally bioavailable LRRK2 inhibitors” (Bioorg Med Chem Lett, 2018).
